Test results taken from patent publication US8481749B2, “N-(tetrazol-5-yl)- and N-(triazol-5-yl)arylcarboxamides and their use as herbicides” (Bayer Cropscience AG, priority 2010, dated 2013).

Test system: Veronica persica
Assay: Pre-emergence herbicidal action against harmful plants
Assay type: in vivo
Conditions: 504 h, application rate 80 g/ha, visual assessment after 3 weeks vs untreated controls (100%=plants have died, 0%=like control), read-out: herbicidal activity in percent against Veronica persica

Compound	pest or weed control at 80 g/ha [%]
C#CCOc1c(S(C)(=O)=O)ccc(C(=O)Nc2nnnn2CC)c1Cl [Compound 5-676]	≥ 80
CCn1nnnc1NC(=O)c1ccc(C(F)(F)F)c(S(C)(=O)=O)c1C1CC1 [Compound 5-210]	≥ 80
CCn1nnnc1NC(=O)c1ccc(Cl)c(S(=O)(=O)CC)c1C [Compound 5-124]	≥ 80
CCCc1c(C(=O)Nc2nnnn2CC)ccc(Cl)c1[S+](C)[O-] (stereo not drawn) [Compound 5-510]	≥ 80
CCn1nnnc1NC(=O)c1ccc(S(=O)(=O)CC)c(SC)c1C(F)(F)F [Compound 5-598]	≥ 80
CCn1nnnc1NC(=O)c1ccc(S(C)(=O)=O)c(OC)c1Cl [Compound 5-276]	≥ 80
CCn1nnnc1NC(=O)c1ccc(S(C)(=O)=O)c(OC)c1C [Compound 5-166]	≥ 80
CCn1ncnc1NC(=O)c1ccc(C(F)(F)F)c(S(C)(=O)=O)c1C [Compound 2-148]	≥ 80
CCn1nnnc1NC(=O)c1ccc(S(C)(=O)=O)c(SC)c1C(F)(F)F [Compound 5-597]	≥ 80
CCSc1c(Cl)ccc(C(=O)Nc2nnnn2CC)c1C [Compound 5-122]	≥ 80
CCn1nnnc1NC(=O)c1ccc(C#N)c(SC)c1C [Compound 5-392]	≥ 80
CCn1nnnc1NC(=O)c1ccc(C)c(SC)c1Cl [Compound 5-614]	≥ 80
